Reference: patent US20220184020A1, “Polyphenols as Modulators of Platelet Function” (Northeastern University, priority 2019, published 2022)

Experiments:
Format in all cases: cell-based, human
[1] = test system: platelets; experiment: Platelet dense granule release (Chrono-Lume); details: induced by CRPXL, TRAP-6 and U46619; RA pre-treatment 1 hour
Protocol: (§1) To validate the predictive power of the developed framework, direct experimental evidence of the predicted mechanistic role of Rosmarinic acid (RA) in VD was sought. […] Therefore, whether RA influenced platelet activation in vitro was evaluated. As platelets can be stimulated through different activation pathways, RA effects can, in principle, occur in any of them. To test these different possibilities, platelets were pretreated with RA and then activated with: 1) glycoprotein VI by collagen or collagen-related peptide (Collagen/CRPXL); 2) protease-activated receptors-1,4 by thrombin receptor activator peptide-6 (TRAP-6); 3) prostanoid thromboxane receptor by the thromboxane A2 analogue (U46619); and 4) P2Y1/12 receptor stimulation by adenosine diphosphate (ADP). […] Platelet aggregation was measured by turbidimetric aggregometry. […] Platelet aggregation was monitored for 6 minutes at 37° C. with a stir speed of 1000 rpm and the maximum extend of aggregation recorded using AGGRO/LINK®8 software. In some cases, dense granule release was simultaneously recorded by supplementing samples with Chrono-Lume® (Chrono-Log®, 395) according to the manufacturer's instructions.

[2] = test system: washed platelets; experiment: Platelet total tyrosine phosphorylation (4G10 immunoblot); details: in response to CRPXL, TRAP-6 and U46619; RA-treated platelets
Protocol: The molecular mechanisms involved in the functional impact of RA on platelets was clarified. The RA target FYN is a protein-tyrosine kinase and platelet activation is coordinated by several kinases that phosphorylate adaptors, enzymes, and cytoskeletal proteins downstream of platelet surface receptors. Given this connection, RA may inhibit platelets function by blocking agonist-induced protein tyrosine phosphorylation.
Human blood collection was performed as previously described in accordance with the Declaration of Helsinki and ethics regulations with Institutional Review Board approval from Brigham and Women's Hospital (P001526). […] Citrated whole blood underwent centrifugation with a slow break (177×g, 20 minutes) and the PRP fraction was acquired for subsequent experiments. For washed platelets, PRP was incubated with 1 μM prostaglandin E1 (Sigma, P5515) and immediately underwent centrifugation with a slow break (1000×g, 5 minutes). Platelet-poor plasma was aspirated, and pellets resuspended in platelet resuspension buffer (PRB; 10 mM Hepes, 140 mM NaCl, 3 mM KCl, 0.5 mM MgCl2, 5 mM NaHCO3, 10 mM glucose, pH 7.4).
Washed platelets were pre-treated with RA for 1 hour, followed by agonist stimulation for 10 minutes. Platelets were lysed on ice with RIPA Lysis Buffer System® (Santa Cruz®, sc-24948) and sample supernatants clarified via centrifugation (14,000 rpm, 5 min, 4° C.). […]

[3] = test system: platelets; experiment: Platelet aggregation by turbidimetric aggregometry; details: PRP pre-treated with RA for 1 hour; collagen 1 μg/mL
Protocol: as §1

Q: How did the dense granule secretion [1] turn out when `O=C(/C=C/c1ccc(O)c(O)c1)O[C@H](Cc1ccc(O)c(O)c1)C(=O)O` [rosmarinic acid] was run?
A: impairs

Q: And the total tyrosine phosphorylation [2]?
A: dose-dependent reduction

Q: What about the collagen-mediated platelet aggregation [3] of the same molecule?
A: inhibits
